Reference: PubChem BioAssay AID330 (DTP/NCI, 2004)
Values joined by “and” are separate entries in the source; they are usually repeats but may differ in a detail not shown here. Identical values can stand only once. Inconclusive results and toxic doses are left out. Rule for the calls: active = survival T/C of 150% or more; inactive = T/C below 125% in these data. Peptide text beside a SMILES is read from it.

Test system: P388 leukemia ip, CD2F1 mice, survival T/C
Assay: NCI In Vivo Anticancer Drug Screen. Data for tumor model P388 Leukemia (intraperitoneal) in CD2F1 (CDF1) mice
Conditions: endpoint: median survival time, higher = longer survival
Summary of the method: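 Mice carrying the transplanted tumor received test compound or vehicle. Survival was recorded in each group, and the value is the treated-group measurement divided by that of the vehicle-treated control group.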

[1] = dose: 25.0 mg/kg/injection, schedule: Q01DX009 (ip), vehicle: saline with Tween-80
[2] = dose: 50.0 mg/kg/injection, schedule: Q01DX009 (ip), vehicle: saline with Tween-80
[3] = dose: 100.0 mg/kg/injection, schedule: Q01DX009 (ip), vehicle: saline with Tween-80
[4] = dose: 100.0 mg/kg/injection, schedule: Q04DX003 (ip), vehicle: saline with Tween-80
[5] = dose: 200.0 mg/kg/injection, schedule: Q01DX009 (ip), vehicle: saline with Tween-80
[6] = dose: 50.0 mg/kg/injection, schedule: Q01DX005 (ip), vehicle: saline with Tween-80
[7] = dose: 100.0 mg/kg/injection, schedule: Q01DX005 (ip), vehicle: saline with Tween-80
[8] = dose: 200.0 mg/kg/injection, schedule: Q01DX005 (ip), vehicle: saline with Tween-80
[9] = dose: 60.0 mg/kg/injection, schedule: Q01DX005 (ip), vehicle: saline with Tween-80
[10] = dose: 120.0 mg/kg/injection, schedule: Q01DX005 (ip), vehicle: saline with Tween-80
[11] = dose: 25.0 mg/kg/injection, schedule: Q01DX005 (ip), vehicle: saline
[12] = dose: 50.0 mg/kg/injection, schedule: Q01DX005 (ip), vehicle: saline
[13] = dose: 100.0 mg/kg/injection, schedule: Q01DX005 (ip), vehicle: saline
[14] = dose: 200.0 mg/kg/injection, schedule: Q01DX005 (ip), vehicle: saline
[15] = dose: 240.0 mg/kg/injection, schedule: Q01DX005 (ip), vehicle: saline with Tween-80
[16] = dose: 100.0 mg/kg/injection, schedule: Q04DX002 (ip), vehicle: saline with Tween-80

Measured: T/C

COc1ccc(C2N=C(N)Nc3nc[nH]c32)c(OC)c1 (configuration not stated)
inactive: dose: 50.0 mg/kg/injection, schedule: Q01DX009 (ip), vehicle: suspension in saline 102 % of control | dose: 100.0 mg/kg/injection, schedule: Q01DX009 (ip), vehicle: suspension in saline 115 % of control | dose: 200.0 mg/kg/injection, schedule: Q01DX009 (ip), vehicle: suspension in saline 109 % of control

CCCCCCCCCCCCCCCCCC1=NCCN1CCN
inactive: [1] 100 % of control | dose: 25.0 mg/kg/injection, schedule: Q04DX003 (ip), vehicle: saline with Tween-80 100 % of control | [2] 104 % of control | dose: 50.0 mg/kg/injection, schedule: Q04DX003 (ip), vehicle: saline with Tween-80 109 % of control | [3] 109 % of control | [4] 95 % of control

C/C(=N/NC(=O)c1ccccc1)c1ccccc1O
inactive: [2] 104 % of control | [3] 100 % of control | [5] 104 % of control | dose: 400.0 mg/kg/injection, schedule: Q01DX009 (ip), vehicle: saline with Tween-80 107 % of control

CCOC(=O)CCC1(C(=O)OC)C(=O)CCCCCCCC1C(=O)OC (configuration not stated)
inactive: [6] 101 % of control | [7] 98 % of control | [8] 94 % of control

O=C(CN1CCN(c2ccccc2)CC1)n1cnc2ccc([N+](=O)[O-])cc21
inactive: [9] 96 % of control | [10] 91 % of control

Cc1cc(-c2cccc3ccccc23)[n+]([O-])cc1C
inactive: [6] 101 % of control | [7] 101 % of control | [8] 90 % of control

O=[N+]([O-])C1=CC(=N/Cl)/C=CC/1=N/Cl
inactive: dose: 12.5 mg/kg/injection, schedule: Q01DX005 (ip), vehicle: saline 105 % of control | [11] 100 % of control | [12] 101 % of control and 97 % of control | [13] 106 % of control | [14] 116 % of control

Cc1ccc(NC(=O)CCCC(=O)C(C#N)c2ccccc2Cl)cc1C (configuration not stated)
inactive: [9] 102 % of control | [10] 108 % of control | [15] 101 % of control

Cn1c(O)c(N=O)c(=O)[nH]c1=O
inactive: [2] 95 % of control | [3] 99 % of control | [16] 100 % of control | [5] 87 % of control

CCCCCCCCCCCCCCC[N+]1([O-])CCOCC1
inactive: dose: 50.0 mg/kg/injection, schedule: Q01DX009 (ip), vehicle: saline 90 % of control | dose: 100.0 mg/kg/injection, schedule: Q01DX009 (ip), vehicle: saline 91 % of control

ClC1=CC(=N/Br)/C=CC/1=N/Br
inactive: [6] 99 % of control and 101 % of control and 107 % of control | [7] 100 % of control and 103 % of control and 97 % of control | [8] 106 % of control and 108 % of control and 120 % of control

O=P1(O)CC2=C(CC=CC2)C1
inactive: [2] 98 % of control | [3] 89 % of control | [5] 98 % of control

CCOc1ccc(C(C)c2cc3c(cc2OCC(=O)O)OCO3)cc1 (configuration not stated)
inactive: [6] 109 % of control | [7] 90 % of control

Cc1c(O)c2c(c(O)c1Cc1ccc(CN)cc1)C(=O)c1ccccc1C2=O
inactive: dose: 12.5 mg/kg/injection, schedule: Q04DX003 (ip), vehicle: water 98 % of control | dose: 25.0 mg/kg/injection, schedule: Q04DX003 (ip), vehicle: water 90 % of control | dose: 50.0 mg/kg/injection, schedule: Q04DX003 (ip), vehicle: water 93 % of control | dose: 100.0 mg/kg/injection, schedule: Q04DX003 (ip), vehicle: water 103 % of control

O=C1C(C(=NCCO)c2ccccc2)=C(O)c2ccccc21
inactive: dose: 25.0 mg/kg/injection, schedule: Q04DX002 (ip), vehicle: saline with Tween-80 90 % of control | dose: 50.0 mg/kg/injection, schedule: Q04DX002 (ip), vehicle: saline with Tween-80 101 % of control | [16] 89 % of control

CN(C)C12CCCCCC1S(=O)(=O)C2 (configuration not stated)
inactive: [2] 94 % of control | [3] 94 % of control

Cc1ccc(C(=O)CSC2=NCCN2)cc1Cl
inactive: [9] 106 % of control | [10] 100 % of control | [15] 97 % of control

CC(=O)Nc1c(Cl)c(Cl)c2c(c1Cl)Cc1cc(Br)ccc1-2
inactive: [4] 109 % of control

CC(C)CC(N)C(=O)NC(C)C(=O)NC(CC(C)C)C(=O)O (stereo not drawn) (H-Leu-Ala-Leu-OH; configuration not given here)
inactive: [11] 101 % of control | [12] 102 % of control | [13] 101 % of control | [14] 100 % of control

CCN(CC)CCNc1ccc(COC(=O)NC)c2oc3ccccc3c(=O)c12
inactive: dose: 1.5 mg/kg/injection, schedule: Q01DX005 (ip), vehicle: distilled water + Tween-80 113 % of control | dose: 3.0 mg/kg/injection, schedule: Q01DX005 (ip), vehicle: distilled water + Tween-80 113 % of control | dose: 6.0 mg/kg/injection, schedule: Q01DX005 (ip), vehicle: distilled water + Tween-80 113 % of control | dose: 12.5 mg/kg/injection, schedule: Q01DX005 (ip), vehicle: distilled water + Tween-80 93 % of control

Clc1ccc(C[P+](c2ccccc2)(c2ccccc2)c2ccccc2)c(Cl)c1
inactive: dose: 1.25 mg/kg/injection, schedule: Q01DX009 (ip), vehicle: saline sonified 109 % of control | dose: 2.5 mg/kg/injection, schedule: Q01DX009 (ip), vehicle: saline sonified 109 % of control | dose: 5.0 mg/kg/injection, schedule: Q01DX009 (ip), vehicle: saline sonified 118 % of control

CCCCN(CCCC)CC(O)c1cc(-c2ccc(Cl)cc2)nc(-c2ccc(Cl)cc2)c1 (configuration not stated)
inactive: dose: 12.5 mg/kg/injection, schedule: Q01DX009 (ip), vehicle: saline with Tween-80 90 % of control | [1] 90 % of control | [2] 92 % of control and 93 % of control | [3] 90 % of control

Cc1ccc(S(=O)(=O)N/N=C/c2c(Cl)n(C(=O)c3cccc(C)c3)c3ccccc23)cc1
inactive: dose: 50.0 mg/kg/injection, schedule: Q01DX001 (ip), vehicle: Klucel (hydroxypropylcellulose) (HPC) 97 % of control | dose: 100.0 mg/kg/injection, schedule: Q01DX001 (ip), vehicle: Klucel (hydroxypropylcellulose) (HPC) 90 % of control | dose: 200.0 mg/kg/injection, schedule: Q01DX001 (ip), vehicle: Klucel (hydroxypropylcellulose) (HPC) 87 % of control

Cn1cnc([N+](=O)[O-])c1Sc1ccncc1S(N)(=O)=O
inactive: dose: 50.0 mg/kg/injection, schedule: Q01DX005 (ip), vehicle: Klucel (hydroxypropylcellulose) (HPC) 118 % of control | dose: 100.0 mg/kg/injection, schedule: Q01DX005 (ip), vehicle: Klucel (hydroxypropylcellulose) (HPC) 102 % of control | dose: 200.0 mg/kg/injection, schedule: Q01DX005 (ip), vehicle: Klucel (hydroxypropylcellulose) (HPC) 108 % of control
